Test system: 454973-116-R2-J3-PDC spheroids, viability, % test/control
Assay: Anticancer human tumor 454973-116-R2-J3-PDC patient-derived pancreatic carcinoma cell line growth inhibition [GQUAD]
Conditions: spheroids with HUVEC and MSC; for IC50: curve of first compound; for viability, T/C: stronger effect = lower value; active = viability on the fitted dose curve at most 10% of control; inactive = the rest
Summary of the method: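 Viability of tumor cells grown as complex spheroids with endothelial and stromal cells, exposed to drug combinations. Top concentration at or near clinical Cmax (else 10 microM), diluted in half-log increments.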

[1] = second compound 0.0316 µM, first compound 0.0316 µM
[2] = second compound 0.0316 µM, first compound 0.316 µM
[3] = second compound 0.1 µM, first compound 0.0316 µM
[4] = second compound 0.1 µM, first compound 0.316 µM
[5] = second compound 0.316 µM, first compound 0.0316 µM
[6] = second compound 0.316 µM, first compound 0.316 µM
[7] = second compound 1 µM, first compound 0.0316 µM
[8] = second compound 1 µM, first compound 0.316 µM
[9] = second compound 3.16 µM, first compound 0.0316 µM
[10] = second compound 3.16 µM, first compound 0.316 µM
[11] = second compound 10 µM, first compound 0.0316 µM
[12] = second compound 10 µM, first compound 0.316 µM
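Note: spheroids exposed to compounds for seven days.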
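Throughout, for viability, T/C: 100% = DMSO vehicle control viability.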

Cc1[nH]c2ccccc2c1CCNCc1ccc(/C=C/C(=O)NO)cc1 + Cc1[nH]c2ccc(F)cc2c1-c1nc2c3cccnc3c3ncccc3c2[nH]1
77.5 nM: IC50 (second compound 0.316 µM)
81.7 nM: IC50 (second compound 10 µM)
75.8 nM: IC50 (second compound 0.1 µM)
72.8 nM: IC50 (second compound 3.16 µM)
74.3 nM: IC50 (second compound 0.0316 µM)
68.4 nM: IC50 (second compound 1 µM)
active: viability, T/C [2] 6.79% | viability, T/C [4] 7.21% | viability, T/C [6] 6.45% | viability, T/C [8] 9.42% | viability, T/C [10] 9.17%
inactive: viability, T/C (second compound 0.0316 µM, first compound 0.000999 µM) 107% | viability, T/C (second compound 0.0316 µM, first compound 0.00316 µM) 104% | viability, T/C (second compound 0.0316 µM, first compound 0.00999 µM) 104% | viability, T/C [1] 85.7% | viability, T/C (second compound 0.0316 µM, first compound 0.0999 µM) 37.6% | viability, T/C (second compound 0.1 µM, first compound 0.000999 µM) 104% | viability, T/C (second compound 0.1 µM, first compound 0.00316 µM) 109% | viability, T/C (second compound 0.1 µM, first compound 0.00999 µM) 108% | viability, T/C [3] 94.5% | viability, T/C (second compound 0.1 µM, first compound 0.0999 µM) 36% | viability, T/C (second compound 0.316 µM, first compound 0.000999 µM) 110% | viability, T/C (second compound 0.316 µM, first compound 0.00316 µM) 110% | viability, T/C (second compound 0.316 µM, first compound 0.00999 µM) 90.4% | viability, T/C [5] 88.8% | viability, T/C (second compound 0.316 µM, first compound 0.0999 µM) 38.3% | viability, T/C (second compound 1 µM, first compound 0.000999 µM) 106% | viability, T/C (second compound 1 µM, first compound 0.00316 µM) 97.5% | viability, T/C (second compound 1 µM, first compound 0.00999 µM) 99.1% | viability, T/C [7] 79.8% | viability, T/C (second compound 1 µM, first compound 0.0999 µM) 35.3% | viability, T/C (second compound 3.16 µM, first compound 0.000999 µM) 99.7% | viability, T/C (second compound 3.16 µM, first compound 0.00316 µM) 94.3% | viability, T/C (second compound 3.16 µM, first compound 0.00999 µM) 85.3% | viability, T/C [9] 86.6% | viability, T/C (second compound 3.16 µM, first compound 0.0999 µM) 36.2% | viability, T/C (second compound 10 µM, first compound 0.000999 µM) 96.2% | viability, T/C (second compound 10 µM, first compound 0.00316 µM) 87.9% | viability, T/C (second compound 10 µM, first compound 0.00999 µM) 92.3% | viability, T/C [11] 75.5% | viability, T/C (second compound 10 µM, first compound 0.0999 µM) 44.6% | viability, T/C [12] 11%

O=c1[nH]cc(F)c(=O)[nH]1 + Cc1[nH]c2ccc(F)cc2c1-c1nc2c3cccnc3c3ncccc3c2[nH]1
2190 nM: IC50 (second compound 0.316 µM)
2250 nM: IC50 (second compound 0.0316 µM)
2360 nM: IC50 (second compound 1 µM)
1530 nM: IC50 (second compound 0.1 µM)
1880 nM: IC50 (second compound 10 µM)
1920 nM: IC50 (second compound 3.16 µM)
inactive: viability, T/C [1] 116% | viability, T/C (second compound 0.0316 µM, first compound 0.1 µM) 115% | viability, T/C [2] 109% | viability, T/C (second compound 0.0316 µM, first compound 1 µM) 77.9% | viability, T/C (second compound 0.0316 µM, first compound 3.16 µM) 34.5% | viability, T/C (second compound 0.0316 µM, first compound 10 µM) 42.2% | viability, T/C [3] 105% | viability, T/C (second compound 0.1 µM, first compound 0.1 µM) 109% | viability, T/C [4] 109% | viability, T/C (second compound 0.1 µM, first compound 1 µM) 57.5% | viability, T/C (second compound 0.1 µM, first compound 3.16 µM) 33.7% | viability, T/C (second compound 0.1 µM, first compound 10 µM) 40.5% | viability, T/C [5] 107% | viability, T/C (second compound 0.316 µM, first compound 0.1 µM) 110% | viability, T/C [6] 105% | viability, T/C (second compound 0.316 µM, first compound 1 µM) 78.9% | viability, T/C (second compound 0.316 µM, first compound 3.16 µM) 31.8% | viability, T/C (second compound 0.316 µM, first compound 10 µM) 41.1% | viability, T/C [7] 99.2% | viability, T/C (second compound 1 µM, first compound 0.1 µM) 97.2% | viability, T/C [8] 95.4% | viability, T/C (second compound 1 µM, first compound 1 µM) 79.1% | viability, T/C (second compound 1 µM, first compound 3.16 µM) 33.9% | viability, T/C (second compound 1 µM, first compound 10 µM) 46.3% | viability, T/C [9] 96.5% | viability, T/C (second compound 3.16 µM, first compound 0.1 µM) 96.1% | viability, T/C [10] 99.9% | viability, T/C (second compound 3.16 µM, first compound 1 µM) 65.1% | viability, T/C (second compound 3.16 µM, first compound 3.16 µM) 31.4% | viability, T/C (second compound 3.16 µM, first compound 10 µM) 45.6% | viability, T/C [11] 93.5% | viability, T/C (second compound 10 µM, first compound 0.1 µM) 87.7% | viability, T/C [12] 102% | viability, T/C (second compound 10 µM, first compound 1 µM) 63.7% | viability, T/C (second compound 10 µM, first compound 3.16 µM) 30.9% | viability, T/C (second compound 10 µM, first compound 10 µM) 46.6%
